Format in all cases: biochemical
Common to all, as to conditions: continuous assay sixty minutes, reaction initiated by adding enzyme to substrate-inhibitor mixture; Ki by simulating AMC formation (Equation 1)

One assay deals with T1, CPP32 (Homo sapiens, UniProt P42574).
T1 sequence (P42574 29-175 limits assumed): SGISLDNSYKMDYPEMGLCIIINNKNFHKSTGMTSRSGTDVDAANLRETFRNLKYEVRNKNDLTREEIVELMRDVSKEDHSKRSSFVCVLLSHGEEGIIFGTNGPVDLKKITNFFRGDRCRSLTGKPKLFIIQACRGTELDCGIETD
T1 sequence (P42574 176-277 limits assumed): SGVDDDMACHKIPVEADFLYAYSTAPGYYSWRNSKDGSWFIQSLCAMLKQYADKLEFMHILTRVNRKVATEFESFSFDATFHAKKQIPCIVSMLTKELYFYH
The experiment in a line: Ki determination, ICE/ced-3 family protease fluorescence assay (CPP32). The procedure:
(§1) Fluorescence enzyme assays detecting the activity of the compounds of Formula I utilizing the recombinant ICE and CPP32 enzymes are performed essentially according to Thorrberry et al. (Nature, 356:768:774 (1992)) and Nicholson et al. (Nature, 376:37-43 (1995)) respectively, (herein incorporated by reference) in 96 well microtiter plates. The substrate is Acetyl-Tyr-Val-Ala-Asp-amino-4-methylcoumarin (AMC) (SEQ ID NO: 1) for the ICE assay and Acetyl-Asp-Glu-Val-Asp-amino-4-methylcoumarin (SEQ ID NO: 2) for the CPP32, Mch2, Mch3 and Mch5 assays. Enzyme reactions are run in ICE buffer (25 mM HEPES, 1 mM EDTA, 0.1% CHAPS, 10% sucrose, pH 7.5) containing 2 mM DTT at room temperature in duplicate. The assays are performed by mixing the following components:
(§2) 50 μL ICE, Mch2, Mch5, CPP32 (18.8, 38, 8.1 and 0.153 nM concentrations, respectively) or Mch3 (1 unit) enzyme in ICE buffer containing either 8.0 (ICE, Mch2, Mch3, CPP32) or 20 (Mch5) mM DTT;
(§3) 50 μL compound of Formula I or ICE buffer (control); and […]
(§4) […] Fluorescent AMC product formation is monitored for one hour at room temperature by measuring the fluorescence emission at 460 nm using an excitation wavelength of 360 nm. […]
(§5) The product formation at time t may be expressed as: [formula] […]
(§6) The activity of a representative compound of this invention (i.e., Compound No. 1) evaluated according to the procedures disclosed in Example 1. […]

A further assay addresses MCH-5 (Homo sapiens, UniProt Q14790). The experiment in a line: Ki determination, ICE/ced-3 family protease fluorescence assay (MCH-5). As to the method:
as §1, §2, §3, §4, §5, §6

For another assay, the target named is T2, MCH-2 (Homo sapiens, UniProt P55212).
T2 sequence (P55212 24-179 limits assumed): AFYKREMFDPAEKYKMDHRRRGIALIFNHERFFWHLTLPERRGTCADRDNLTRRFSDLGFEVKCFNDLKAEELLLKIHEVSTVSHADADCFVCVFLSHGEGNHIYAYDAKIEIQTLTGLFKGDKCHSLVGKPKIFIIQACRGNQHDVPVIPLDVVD
T2 sequence (P55212 194-293 limits assumed): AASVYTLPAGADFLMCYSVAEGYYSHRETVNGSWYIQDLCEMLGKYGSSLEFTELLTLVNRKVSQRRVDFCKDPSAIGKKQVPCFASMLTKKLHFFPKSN
The experiment in a line: Ki determination, ICE/ced-3 family protease fluorescence assay (MCH-2). The procedure:
as §1, §2, §3, §4, §5, §6

The next assay deals with T3, mICE (Mus musculus, UniProt P29452).
T3 sequence (P29452 123-296 limits assumed): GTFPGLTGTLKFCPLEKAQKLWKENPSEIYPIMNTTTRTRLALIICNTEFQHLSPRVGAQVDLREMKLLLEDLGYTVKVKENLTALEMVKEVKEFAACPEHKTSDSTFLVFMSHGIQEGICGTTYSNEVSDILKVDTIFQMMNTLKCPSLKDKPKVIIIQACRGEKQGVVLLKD
T3 sequence (P29452 315-402 limits assumed): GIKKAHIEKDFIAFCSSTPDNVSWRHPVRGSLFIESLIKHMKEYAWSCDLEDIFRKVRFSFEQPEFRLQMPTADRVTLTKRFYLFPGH
The experiment in a line: Ki determination, ICE/ced-3 family protease fluorescence assay (mICE). As to the method: as §1, §2, §3, §4, §5, §6

The source of these data is patent publication US6515173B1, “Inhibitors of the ICE/ced-3 family of cysteine proteases” (Idun Pharmaceuticals, Inc., priority 2000, dated 2003).

What is called Ki is a dissociation constant, usually derived from enzyme kinetics or from competition with a known ligand.

Peptide text beside a SMILES is read from it. * marks the point of attachment. Cbz = O=C(OCc1ccccc1)*; CH2F = FC*

For `C[C@H](NC(=O)C(=O)Nc1ccccc1C(C)(C)C)C(=O)N[C@@H](CC(=O)NS(C)(=O)=O)C(=O)COc1c(F)c(F)cc(F)c1F` [compound 1], the inhibition constant (Ki) at CPP32 was 856 nM; at MCH-5 it was 11 nM; on MCH-2, 0.681 µM; on mICE it was 4 nM.
In the same order, the values of `CC(NC(=O)C(NC(=O)OCc1ccccc1)C(C)C)C(=O)NC(CC(=O)O)C(=O)CF` (stereo not drawn) [reference, Cbz-ValAlaAsp-CH2F] (Cbz-Val-Ala-Asp-CH2F; configuration not given here) are 820 nM, 18 nM, 0.594 µM and 15 nM.
